# In patent US20220354833A1, “ALVELESTAT FOR USE IN THE TREATMENT OF GRAFT REJECTION, BRONCHIOLITIS OBLITERANS SYNDROME AND GRAFT VERSUS HOST DISEASE” (MEREO BIOPHARMA 4 LIMITED, priority 2019, published 2022):
# Values joined by “and” are separate entries in the source; they are usually repeats but may differ in a detail not shown here. Identical values can stand only once. “Also recorded” adds a separate entry of the source. Like-named read-outs stand apart in the source and are kept apart here.
# Legend:
# human NE [1] = target: T1, human NE (Homo sapiens, UniProt P08246); conditions: read-out: binding affinity KD; cited from earlier work
# T1 sequence (P08246 30-267): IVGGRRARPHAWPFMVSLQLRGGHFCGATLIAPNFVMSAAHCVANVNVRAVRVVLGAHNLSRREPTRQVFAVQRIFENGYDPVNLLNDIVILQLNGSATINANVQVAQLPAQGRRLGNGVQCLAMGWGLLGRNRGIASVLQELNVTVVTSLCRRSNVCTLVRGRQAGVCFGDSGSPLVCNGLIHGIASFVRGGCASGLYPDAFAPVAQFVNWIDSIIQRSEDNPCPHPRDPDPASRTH
# NE [2] = target: T2, NE (Homo sapiens, UniProt P08246); conditions: cell-associated assay; cited from earlier work
# NE [3] = target: T2, NE; conditions: whole-blood assay; cited from earlier work
# [4] = tested on: patients with BOS and chronic GVHD after HCT
# murine NE = target: T3, murine NE (Mus musculus, UniProt Q3UP87); conditions: cited from earlier work
# T3 sequence (Q3UP87 27-265): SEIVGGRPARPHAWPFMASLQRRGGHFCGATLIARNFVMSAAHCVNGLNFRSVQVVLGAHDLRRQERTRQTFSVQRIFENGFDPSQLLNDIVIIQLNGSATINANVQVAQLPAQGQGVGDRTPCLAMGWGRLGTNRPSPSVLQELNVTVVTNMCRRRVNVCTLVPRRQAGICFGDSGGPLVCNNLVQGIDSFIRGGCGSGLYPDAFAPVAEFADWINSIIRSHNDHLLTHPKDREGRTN
# human NE [5] = target: T1, human NE; conditions: cited from earlier work
# murine model of GVHD = assay type: in vivo
structure (smiles),measurement,setting,value
"Cc1c(-c2ccnn2C)cc(C(=O)NCc2ccc(S(C)(=O)=O)cn2)c(=O)n1-c1cccc(C(F)(F)F)c1 [alvelestat, N-{[5-(methanesulfonyl)pyridin-2-yl]methyl}-6-methyl-5-(1-methyl-1H-pyrazol-5-yl)-2-oxo-1-[3-(trifluoromethyl)phenyl]-1,2-dihydropyridine-3-carboxamide]",Kd,human NE [1],9.5 nM
same,IC50,NE [2],48 nM
same,pIC50,NE [2],7.32
same,IC50,NE [3],44 nM
same,pIC50,NE [3],7.36
same,LSS score for lung/breathing at C5,"[4]; Lee cGVHD Symptom Scale, C5 = continuation dosing period up to 6 months, individual patients #1-7",7 and 3 (2×) and 11 and 2 and 5 and 4
same,LSS score for lung/breathing at the end of treatment,"[4]; Lee cGVHD Symptom Scale, individual patients #1-7",8 and 2 and 11 and 3 and 7 and 5 and 1
same,patients with progressive disease,"[4]; NIH chronic GVHD consensus criteria, decline in FEV1 after pneumonia, of 7 patients",1 patient
same,grade 2 adverse event possibly related: ALT or AST elevation,"[4]; human, in vivo",3 patients
same,grade 2 adverse event possibly related: increased creatinine,"[4]; human, in vivo",3 patients
same,grade 2 adverse event possibly related: upper respiratory infection,"[4]; human, in vivo",3 patients
same,grade 3 adverse event possibly related: gastroenteritis and vomiting requiring hospitalization,"[4]; human, in vivo",1 patient
same,grade 3 adverse event possibly related: pneumonia,"[4]; human, in vivo",1 patient
same,patients requiring dose interruptions,"[4]; human, in vivo",Four
same,patients requiring dose reduction,"[4]; human, in vivo",1
same,patients who discontinued treatment prior to end of study,"[4]; human, in vivo",Four
same,maximum dose to which all 7 patients tolerated dose escalation,"[4]; human, in vivo, po, 8 weeks",240 mg twice daily
same,End of treatment FEV1 % predicted,[4]; individual patients (patient #1-7),47% and 55% and 40% and 46% and 38% and 41% and 73%
same,patients with improvement in Lee chronic GVHD symptom scale lung score,"[4]; of 7 patients, 2 during the 6 month treatment period, 2 at end of treatment",4 patients
same,maximum tolerated dose (MTD),"[4]; oral, intra-patient escalation 60 to 240 mg twice daily, 7 patients",not reached
same,improvement in FEV1,[4]; seen in 2 of 7 patients,9%
same,crossover potency for NE from other species,"murine NE; NE from other species, including mice",good crossover potency
same,pIC50,murine NE; murine NE,6.5
same,Ki,human NE [5],9.4 nM
same,pIC50,human NE [5],7.9
same,reversibility of inhibition,human NE [5],rapidly reversible
same,histological scoring of GI GVHD,"murine model of GVHD; 20 mg/kg diet vs T2e6, sacrificed Day 4, blinded pathologist, n=5/group, p=0.08, FIG. 4",trend toward increased pathology in the T2e6 group; also recorded: markedly less GVHD
same,survival,"murine model of GVHD; T-cell dose experiment, 20 mg/kg in pre-mixed diet pellets, vs 2x10^6 T cells alone, p<0.001, n=5/group, FIG. 2A, 20 mg/kg",significantly improved survival; also recorded: better survival
same,toxicity in skin or liver (histology),"murine model of GVHD; mice receiving T2e6+20 mg/kg diet, Day 4",no toxicity was observed
same,survival,"murine model of GVHD; powder mixed with wet food, days -1 to 45, TCDBM+T2e6+20 mg/kg wet food vs TCDBM+T2e6, log-rank p=0.01, FIG. 1B",significant improvements in survival
same,survival,"murine model of GVHD; pre-mixed diet pellets, days -1 to 45, TCDBM+T2e6+20 mg/kg diet vs TCDBM+T2e6, log-rank p=0.001, FIG. 1A",significant improvements in survival
same,"dose-response in improvement in survival, body weight or GVHD score","murine model of GVHD; three doses tested: 20, 50, 200 mg/kg per day, FIG. 1C-1F",does not appear to be a dose-response
